Results published in ChEMBL document CHEMBL3112574, “Substituted piperidines as HDM2 inhibitors” (Bioorg Med Chem Lett, 2014).

Target: T1, Cytochrome P450 2C9 (Homo sapiens, UniProt P11712)
Test: Inhibition of CYP2C9 (unknown origin) compound co-incubated with substrate
Format: ADME
Conditions: not given

T1 sequence (P11712 whole entry): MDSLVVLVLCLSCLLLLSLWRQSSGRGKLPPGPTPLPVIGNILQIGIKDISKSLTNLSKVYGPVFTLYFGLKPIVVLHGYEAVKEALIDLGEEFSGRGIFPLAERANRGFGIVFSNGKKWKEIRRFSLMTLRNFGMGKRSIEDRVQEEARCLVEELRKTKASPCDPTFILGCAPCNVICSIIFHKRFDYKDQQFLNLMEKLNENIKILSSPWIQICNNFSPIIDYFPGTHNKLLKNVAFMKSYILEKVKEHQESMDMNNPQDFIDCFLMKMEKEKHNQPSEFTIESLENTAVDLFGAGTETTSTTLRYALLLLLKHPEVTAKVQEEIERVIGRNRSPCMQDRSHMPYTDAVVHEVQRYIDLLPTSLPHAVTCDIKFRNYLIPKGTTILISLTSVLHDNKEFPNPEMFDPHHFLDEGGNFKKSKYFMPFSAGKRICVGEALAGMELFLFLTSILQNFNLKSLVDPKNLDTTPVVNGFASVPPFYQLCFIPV

IC50 [µM]	SMILES
> 30	COCCOc1ccccc1N1CCN(C(=O)C2(Oc3ccc(C(F)(F)F)cc3)CCCN(C(=O)c3cnccc3C(F)(F)F)C2)CC1.Cl (single isomer, unassigned)

System: not listed separately
Test: AUC (0 to 24 hrs) in mouse at 20 mg/kg, po
Format: ADME, organism-based
Design: time < 24 hr, dose 20 mg/kg, route oral
Conditions: plasma

AUC(0-t) at 24 h [µM·h]	SMILES
1.1	COCCOc1ccccc1N1CCN(C(=O)C2(Oc3ccc(C(F)(F)F)cc3)CCCN(C(=O)c3cnccc3C(F)(F)F)C2)CC1.Cl (single isomer, unassigned)

Target: T1, Cytochrome P450 2C9
Test: Inhibition of CYP2C9 (unknown origin) compound preincubated with substrate
Format: ADME
Conditions: not given

IC50 [µM]	SMILES
> 30	COCCOc1ccccc1N1CCN(C(=O)C2(Oc3ccc(C(F)(F)F)cc3)CCCN(C(=O)c3cnccc3C(F)(F)F)C2)CC1.Cl (single isomer, unassigned)

System: not listed separately
Test: Oral bioavailability in mouse at 20 mg/kg
Format: ADME, organism-based
Conditions: in vivo

bioavailability [%]	SMILES
32	COCCOc1ccccc1N1CCN(C(=O)C2(Oc3ccc(C(F)(F)F)cc3)CCCN(C(=O)c3cnccc3C(F)(F)F)C2)CC1.Cl (single isomer, unassigned)

System: not listed separately
Test: Cmax in mouse at 20 mg/kg, po
Format: ADME, organism-based
Design: dose 20 mg/kg, route oral
Conditions: in vivo

Cmax [nM]	SMILES
700	COCCOc1ccccc1N1CCN(C(=O)C2(Oc3ccc(C(F)(F)F)cc3)CCCN(C(=O)c3cnccc3C(F)(F)F)C2)CC1.Cl (single isomer, unassigned)

System: not listed separately
Test: Tmax in mouse at 20 mg/kg, po
Format: ADME, organism-based
Design: dose 20 mg/kg, route oral
Conditions: in vivo

Tmax [h]	SMILES
1	COCCOc1ccccc1N1CCN(C(=O)C2(Oc3ccc(C(F)(F)F)cc3)CCCN(C(=O)c3cnccc3C(F)(F)F)C2)CC1.Cl (single isomer, unassigned)

System: not listed separately
Test: AUC (0 to 24 hrs) in mouse at 20 mg/kg, iv
Format: ADME, organism-based
Design: time < 24 hr, dose 20 mg/kg, route intravenous
Conditions: plasma

AUC(0-t) at 24 h [µM·h]	SMILES
3.4	COCCOc1ccccc1N1CCN(C(=O)C2(Oc3ccc(C(F)(F)F)cc3)CCCN(C(=O)c3cnccc3C(F)(F)F)C2)CC1.Cl (single isomer, unassigned)

Target: T2, Cytochrome P450 2D6 (Homo sapiens, UniProt P10635)
Test: Inhibition of CYP2D6 (unknown origin) compound preincubated with substrate
Format: ADME
Conditions: not given

T2 sequence (P10635 whole entry): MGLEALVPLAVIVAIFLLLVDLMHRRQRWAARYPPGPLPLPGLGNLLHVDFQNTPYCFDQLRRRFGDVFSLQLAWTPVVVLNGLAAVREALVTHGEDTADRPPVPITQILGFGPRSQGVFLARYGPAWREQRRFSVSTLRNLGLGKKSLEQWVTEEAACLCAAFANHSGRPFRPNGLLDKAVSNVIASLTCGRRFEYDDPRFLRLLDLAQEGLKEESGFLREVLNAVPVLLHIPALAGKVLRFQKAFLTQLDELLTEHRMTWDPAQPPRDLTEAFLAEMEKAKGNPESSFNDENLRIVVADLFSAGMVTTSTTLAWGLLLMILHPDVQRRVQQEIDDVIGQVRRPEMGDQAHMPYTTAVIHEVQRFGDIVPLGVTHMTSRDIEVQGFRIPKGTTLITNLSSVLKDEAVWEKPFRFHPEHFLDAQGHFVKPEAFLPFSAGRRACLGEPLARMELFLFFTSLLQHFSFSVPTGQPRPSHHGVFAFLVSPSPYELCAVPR

IC50 [µM]	SMILES
> 30	COCCOc1ccccc1N1CCN(C(=O)C2(Oc3ccc(C(F)(F)F)cc3)CCCN(C(=O)c3cnccc3C(F)(F)F)C2)CC1.Cl (single isomer, unassigned)

Target: T2, Cytochrome P450 2D6
Test: Inhibition of CYP2D6 (unknown origin) compound co-incubated with substrate
Format: ADME
Conditions: not given

IC50 [µM]	SMILES
> 30	COCCOc1ccccc1N1CCN(C(=O)C2(Oc3ccc(C(F)(F)F)cc3)CCCN(C(=O)c3cnccc3C(F)(F)F)C2)CC1.Cl (single isomer, unassigned)

Target: Tumour suppressor p53/oncoprotein Mdm2 (Homo sapiens, UniProt Q00987)
Test: Inhibition of human MDM2/p53 interaction by fluorescence polarization assay
Format: protein assay
Conditions: not given

Sequence of Tumour suppressor p53/oncoprotein Mdm2 (P04637 whole entry): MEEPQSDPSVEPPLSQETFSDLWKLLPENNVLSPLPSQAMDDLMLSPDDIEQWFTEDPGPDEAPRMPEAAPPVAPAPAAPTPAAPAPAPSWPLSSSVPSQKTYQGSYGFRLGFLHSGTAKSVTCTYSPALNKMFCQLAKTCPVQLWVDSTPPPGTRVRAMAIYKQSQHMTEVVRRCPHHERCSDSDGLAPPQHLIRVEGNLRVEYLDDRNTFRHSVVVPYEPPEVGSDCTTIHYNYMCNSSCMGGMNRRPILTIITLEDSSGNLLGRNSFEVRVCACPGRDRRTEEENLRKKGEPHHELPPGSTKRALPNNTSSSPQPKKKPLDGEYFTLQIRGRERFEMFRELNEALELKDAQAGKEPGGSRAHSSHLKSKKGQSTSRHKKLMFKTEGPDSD
Sequence of Tumour suppressor p53/oncoprotein Mdm2 (Q00987 whole entry): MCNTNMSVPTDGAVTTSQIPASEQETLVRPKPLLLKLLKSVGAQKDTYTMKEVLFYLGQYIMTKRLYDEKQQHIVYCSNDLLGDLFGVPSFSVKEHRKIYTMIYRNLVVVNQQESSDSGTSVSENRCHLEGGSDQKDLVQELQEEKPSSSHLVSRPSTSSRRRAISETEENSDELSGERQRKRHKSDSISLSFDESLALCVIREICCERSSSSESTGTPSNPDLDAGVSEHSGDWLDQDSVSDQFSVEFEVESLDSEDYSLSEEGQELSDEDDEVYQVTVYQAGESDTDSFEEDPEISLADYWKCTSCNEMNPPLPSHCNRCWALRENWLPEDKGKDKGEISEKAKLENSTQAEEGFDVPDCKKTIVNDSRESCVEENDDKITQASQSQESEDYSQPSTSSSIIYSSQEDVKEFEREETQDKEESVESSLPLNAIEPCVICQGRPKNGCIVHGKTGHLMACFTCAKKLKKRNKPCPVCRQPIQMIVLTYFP

IC50 [µM]	SMILES
31	O=C(N1CCN(c2ccccn2)CC1)C1(Oc2ccc(C(F)(F)F)cc2)CCCN(S(=O)(=O)c2ccccc2Cl)C1 (centres undefined)
2.8	O=C(c1cnccc1C(F)(F)F)N1CCCC(Oc2ccc(C(F)(F)F)cc2)(C(=O)N2CCN(c3ccccc3)CC2)C1 (centres undefined)
6	O=C(c1cnccc1C(F)(F)F)N1CCCC(Oc2ccc(F)cc2)(C(=O)N2CCN(c3ccccn3)CC2)C1 (centres undefined)
4.2	O=C(c1cnccc1C(F)(F)F)N1CCCC(Oc2ccc(C(F)(F)F)cc2)(C(=O)N2CCN(C3CCCCC3)CC2)C1 (centres undefined)
6.5	O=C(c1ccccc1C(F)(F)F)N1CCCC(Oc2ccc(C(F)(F)F)cc2)(C(=O)N2CCN(c3ccccn3)CC2)C1 (centres undefined)
0.38	CC(=O)Nc1ccccc1N1CCN(C(=O)C2(Oc3ccc(C(F)(F)F)cc3)CCCN(C(=O)c3cnccc3C(F)(F)F)C2)CC1 (centres undefined)
6.9	CC(C)S(=O)(=O)N1CCCC(Oc2ccc(C(F)(F)F)cc2)(C(=O)N2CCN(c3ccccn3)CC2)C1 (centres undefined)
0.27	O=C(CC1NC(=O)NC1=O)Nc1ccccc1N1CCN(C(=O)C2(Oc3ccc(C(F)(F)F)cc3)CCCN(C(=O)c3cnccc3C(F)(F)F)C2)CC1 (centres undefined)
12	CN1CCN(C(=O)C2(Oc3ccc(C(F)(F)F)cc3)CCCN(C(=O)c3cnccc3C(F)(F)F)C2)CC1 (centres undefined)
35	O=C(c1cnccc1C(F)(F)F)N1CCCC(Oc2ccc(C(F)(F)F)cc2)(C(=O)N2CCN(c3ncccn3)CC2)C1 (centres undefined)
2.9	O=C(c1cnccc1C(F)(F)F)N1CCCC(Oc2ccc(Br)c(F)c2)(C(=O)N2CCN(c3ccccn3)CC2)C1 (centres undefined)
22	CC(C)(C)C(=O)N1CCCC(Oc2ccc(C(F)(F)F)cc2)(C(=O)N2CCN(c3ccccn3)CC2)C1 (centres undefined)
0.97	O=C(c1cnccc1C(F)(F)F)N1CCCC(Oc2ccc(C(F)(F)F)cc2)(C(=O)N2CCN(c3ccccc3O)CC2)C1 (centres undefined)
41	O=C(N1CCN(c2ccccn2)CC1)C1(Oc2ccc(C(F)(F)F)cc2)CCCN(S(=O)(=O)c2ccccc2C(F)(F)F)C1 (centres undefined)
0.59	CCOc1ccccc1N1CCN(C(=O)C2(Oc3ccc(C(F)(F)F)cc3)CCCN(C(=O)c3cnccc3C(F)(F)F)C2)CC1 (centres undefined)
0.59	CN(C)CCC(=O)Nc1ccccc1N1CCN(C(=O)C2(Oc3ccc(C(F)(F)F)cc3)CCCN(C(=O)c3cnccc3C(F)(F)F)C2)CC1 (centres undefined)
41	Cc1nc2cc(OC3(C(=O)N4CCN(c5ccccn5)CC4)CCCN(C(=O)c4cnccc4C(F)(F)F)C3)ccc2s1 (centres undefined)
48	O=C(c1cnccc1C(F)(F)F)N1CCCC(Oc2ccc(-c3ccccc3)cc2)(C(=O)N2CCN(c3ccccn3)CC2)C1 (centres undefined)
18	O=C(c1cnccc1C(F)(F)F)N1CCCC(Oc2ccc(C(F)(F)F)cc2)(C(=O)N2CCN(c3ccncn3)CC2)C1 (centres undefined)
26	O=C(N1CCN(c2ccccn2)CC1)C1(Oc2ccc(C(F)(F)F)cc2)CCCN(S(=O)(=O)c2ccccc2)C1 (centres undefined)
3.7	O=C(c1cnccc1C(F)(F)F)N1CCCC(Oc2ccc(C(F)(F)F)cc2)(C(=O)N2CCC(c3ccccn3)C2)C1 (centres undefined)
6.9	CC(C)(C)CCN1CCCC(Oc2ccc(C(F)(F)F)cc2)(C(=O)N2CCN(c3ccccn3)CC2)C1 (centres undefined)
36	CC(=O)N1CCN(C(=O)C2(Oc3ccc(C(F)(F)F)cc3)CCCN(C(=O)c3cnccc3C(F)(F)F)C2)CC1 (centres undefined)
1.08	CN(C)CCCC(=O)Nc1ccccc1N1CCN(C(=O)C2(Oc3ccc(C(F)(F)F)cc3)CCCN(C(=O)c3cnccc3C(F)(F)F)C2)CC1 (centres undefined)
5.1	O=C(N1CCN(c2ccccn2)CC1)C1(Oc2ccc(C(F)(F)F)cc2)CCCN(CC2CCCCC2)C1 (centres undefined)

IC50 [µM]	SMILES
2.3	O=C(c1cnccc1C(F)(F)F)N1CCCC(Oc2ccc(C(F)(F)F)cc2)(C(=O)N2CCN(c3ccccn3)CC2)C1 (centres undefined)
6.5	CCCN1CCCC(Oc2ccc(C(F)(F)F)cc2)(C(=O)N2CCN(c3ccccn3)CC2)C1 (centres undefined)
0.63	Cc1cc(CC(=O)Nc2ccccc2N2CCN(C(=O)C3(Oc4ccc(C(F)(F)F)cc4)CCCN(C(=O)c4cnccc4C(F)(F)F)C3)CC2)on1 (centres undefined)
1.5	Cc1ccc(OC2(C(=O)N3CCN(c4ccccn4)CC3)CCCN(C(=O)c3cnccc3C(F)(F)F)C2)cc1 (centres undefined)
50	O=C(N1CCN(c2ccccn2)CC1)C1(Oc2ccc(C(F)(F)F)cc2)CCCN(S(=O)(=O)c2ccc(Cl)cc2)C1 (centres undefined)
3	CC(C)(C)CC(=O)N1CCCC(Oc2ccc(C(F)(F)F)cc2)(C(=O)N2CCN(c3ccccn3)CC2)C1 (centres undefined)
1.4	O=C(c1cnccc1C(F)(F)F)N1CCCC(Oc2ccc(Cl)c(F)c2)(C(=O)N2CCN(c3ccccn3)CC2)C1 (centres undefined)
1.9	O=C(N1CCN(c2ccccn2)CC1)C1(Oc2ccc(C(F)(F)F)cc2)CCCN(C(=O)C2(c3ccc(Cl)cc3)CC2)C1 (centres undefined)
21	O=C(c1cnccc1C(F)(F)F)N1CCCC(Oc2ccccc2Cl)(C(=O)N2CCN(c3ccccn3)CC2)C1 (centres undefined)
1.4	O=C(c1cnccc1C(F)(F)F)N1CCCC(Oc2ccc(C(F)(F)F)cc2)(C(=O)N2CC=C(c3ccccc3)CC2)C1 (centres undefined)
0.37	CCC(=O)Nc1ccccc1N1CCN(C(=O)C2(Oc3ccc(C(F)(F)F)cc3)CCCN(C(=O)c3cnccc3C(F)(F)F)C2)CC1 (centres undefined)
> 50	COc1cccc(N2CCN(C(=O)C3(Oc4ccc(C(F)(F)F)cc4)CCCN(C(=O)c4cnccc4C(F)(F)F)C3)CC2)c1 (centres undefined)
23	COc1ccc(N2CCN(C(=O)C3(Oc4ccc(C(F)(F)F)cc4)CCCN(C(=O)c4cnccc4C(F)(F)F)C3)CC2)cc1 (centres undefined)
1.5	O=C(c1cnccc1C(F)(F)F)N1CCCC(Oc2ccc(C(F)(F)F)cc2)(C(=O)NCc2ccc(Cl)cc2)C1 (centres undefined)
1.4	O=C(NCCc1ccccc1)C1(Oc2ccc(C(F)(F)F)cc2)CCCN(C(=O)C2(c3ccc(Cl)cc3)CC2)C1 (centres undefined)
39	O=C(c1cnccc1C(F)(F)F)N1CCCC(Oc2ccc(C(F)(F)F)cc2)(C(=O)N2CCN(Cc3ccccc3)CC2)C1 (centres undefined)
1.4	O=C(c1cnccc1C(F)(F)F)N1CCCC(Oc2ccc(C(F)(F)F)cc2)(C(=O)N2CCc3ccccc3C2)C1 (centres undefined)
33	COc1ccc(OC2(C(=O)N3CCN(c4ccccn4)CC3)CCCN(C(=O)c3cnccc3C(F)(F)F)C2)cc1 (centres undefined)
3.5	O=C(c1cnccc1C(F)(F)F)N1CCCC(Oc2ccc(C(F)(F)F)cc2)(C(=O)NCCc2ccccc2)C1 (centres undefined)
0.67	CN(C)CC(=O)Nc1ccccc1N1CCN(C(=O)C2(Oc3ccc(C(F)(F)F)cc3)CCCN(C(=O)c3cnccc3C(F)(F)F)C2)CC1 (centres undefined)
0.54	COCC(=O)Nc1ccccc1N1CCN(C(=O)C2(Oc3ccc(C(F)(F)F)cc3)CCCN(C(=O)c3cnccc3C(F)(F)F)C2)CC1 (centres undefined)
14	O=C(N1CCN(c2ccccn2)CC1)C1(Oc2ccc(C(F)(F)F)cc2)CCCN(Cc2ccccc2C(F)(F)F)C1 (centres undefined)
1.9	O=C(c1cnccc1C(F)(F)F)N1CCCC(Oc2ccc(Br)cc2)(C(=O)N2CCN(c3ccccn3)CC2)C1 (centres undefined)
5.2	O=C(c1cnccc1C(F)(F)F)N1CCCC(Oc2cccc(Cl)c2)(C(=O)N2CCN(c3ccccn3)CC2)C1 (centres undefined)
6.7	O=C(c1cnccc1C(F)(F)F)N1CCCC(Oc2ccc(Cl)cc2)(C(=O)N2CCN(c3ccccn3)CC2)C1 (centres undefined)
